Reference: ChEMBL document CHEMBL3885861, “Open TG-GATES”

Species on record: Rattus norvegicus
Assay: Open TG-GATES - Regimen: Daily Repeat
Assay type: toxicity, organism-based, Sprague-Dawley
Set-up: regimen Daily Repeat, gender Male, age 6 weeks
Details: in vivo, po, 0 mg/kg, […], route gavage, dose level Control; for KIDNEY_L / KIDNEY_R / KIDNEY_TOTAL: tissue Kidney; for LIVER: tissue Liver; for A/G / ALP / ALT / AST / BUN / CRE / Ca / Cl / DBIL / GLC / IP / K / LDH / Na / PL / RALB / TBIL / TC / TG / TP / gamma-GTP: tissue Plasma

CCCNC(=O)NS(=O)(=O)c1ccc(Cl)cc1 [CHLORPROPAMIDE]
Lym (tissue Blood, time 28 day): 78.8% | MCH (tissue Blood, time 28 day): 19 pg | MCHC (tissue Blood, time 28 day): 32.9% | MCV (tissue Blood, time 28 day): 57.5 fL | Mono (tissue Blood, time 28 day): 2% | Neu (tissue Blood, time 28 day): 17% | PT (tissue Blood, time 28 day): 16.1 s | Plat (tissue Blood, time 28 day): 94.8 x10_4/uL | RBC (tissue Blood, time 28 day): 787.4 x10_4/ul | Ret (tissue Blood, time 28 day): 2.2% | WBC (tissue Blood, time 28 day): 103.1 x10_2/uL | KIDNEY_L (time 7 day): 1.1 g | KIDNEY_R (time 7 day): 1.1 g | KIDNEY_TOTAL (time 7 day): 2.2 g | KIDNEY_L (time 14 day): 1.2 g | KIDNEY_R (time 14 day): 1.2 g | KIDNEY_TOTAL (time 14 day): 2.4 g | KIDNEY_L (time 28 day): 1.4 g | KIDNEY_R (time 28 day): 1.4 g | KIDNEY_TOTAL (time 28 day): 2.8 g | LIVER (time 7 day): 11.6 g | LIVER (time 14 day): 13.6 g | LIVER (time 28 day): 14.6 g | A/G (time 7 day): 0.8 | ALP (time 7 day): 1869.6 IU/L | ALT (time 7 day): 43.2 IU/L | AST (time 7 day): 69.4 IU/L | BUN (time 7 day): 15.4 mg/dL | CRE (time 7 day): 0.2 mg/dL | Ca (time 7 day): 10.9 mg/dL | Cl (time 7 day): 106 meq/L | DBIL (time 7 day): 0.014 mg/dL | GLC (time 7 day): 185.6 mg/dL | IP (time 7 day): 6.7 mg/dL | K (time 7 day): 4.2 meq/L | LDH (time 7 day): 97.4 IU/L | Na (time 7 day): 143 meq/L | PL (time 7 day): 154.2 mg/dL | RALB (time 7 day): 2.7 g/dL | TBIL (time 7 day): 0.036 mg/dL | TC (time 7 day): 82 mg/dL | TG (time 7 day): 105.2 mg/dL | TP (time 7 day): 5.8 g/dL | gamma-GTP (time 7 day): 1.2 IU/L | A/G (time 14 day): 0.8 | ALP (time 14 day): 1479.6 IU/L | ALT (time 14 day): 44.6 IU/L | AST (time 14 day): 68.6 IU/L | BUN (time 14 day): 18.4 mg/dL | CRE (time 14 day): 0.2 mg/dL | Ca (time 14 day): 10.7 mg/dL | Cl (time 14 day): 104.2 meq/L | DBIL (time 14 day): 0.012 mg/dL | GLC (time 14 day): 194.6 mg/dL | IP (time 14 day): 7.3 mg/dL | K (time 14 day): 4.1 meq/L | LDH (time 14 day): 120 IU/L | Na (time 14 day): 143.4 meq/L | PL (time 14 day): 164 mg/dL | RALB (time 14 day): 2.8 g/dL | TBIL (time 14 day): 0.032 mg/dL | TC (time 14 day): 77.8 mg/dL | TG (time 14 day): 158.4 mg/dL | TP (time 14 day): 6.1 g/dL | gamma-GTP (time 14 day): 1 IU/L | A/G (time 28 day): 0.8 | ALP (time 28 day): 1207 IU/L | ALT (time 28 day): 40.2 IU/L | AST (time 28 day): 66.8 IU/L | BUN (time 28 day): 16.2 mg/dL | CRE (time 28 day): 0.2 mg/dL | Ca (time 28 day): 10.6 mg/dL | Cl (time 28 day): 105.6 meq/L | DBIL (time 28 day): 0.01 mg/dL | GLC (time 28 day): 188.8 mg/dL | IP (time 28 day): 6.5 mg/dL | K (time 28 day): 3.8 meq/L | LDH (time 28 day): 88.4 IU/L | Na (time 28 day): 144 meq/L | PL (time 28 day): 137.6 mg/dL | RALB (time 28 day): 2.7 g/dL | TBIL (time 28 day): 0.03 mg/dL | TC (time 28 day): 65.8 mg/dL | TG (time 28 day): 122.6 mg/dL | TP (time 28 day): 6.1 g/dL | gamma-GTP (time 28 day): 1 IU/L
